The target of test [1] is Tyrosine-protein kinase BTK (Homo sapiens, UniProt Q06187). The experiment in a line: Selectivity interaction (ActivX KiNativ screen (ex vivo kinase selectivity in human PBMCs)) EUB0001619a BTK. In kind it is cell-based. To be noted: PBMC, at 1 µM.
Test [2] concerns the target T1, Dual specificity protein kinase TTK (Homo sapiens) (UniProt P33981).
T1 sequence (whole entry): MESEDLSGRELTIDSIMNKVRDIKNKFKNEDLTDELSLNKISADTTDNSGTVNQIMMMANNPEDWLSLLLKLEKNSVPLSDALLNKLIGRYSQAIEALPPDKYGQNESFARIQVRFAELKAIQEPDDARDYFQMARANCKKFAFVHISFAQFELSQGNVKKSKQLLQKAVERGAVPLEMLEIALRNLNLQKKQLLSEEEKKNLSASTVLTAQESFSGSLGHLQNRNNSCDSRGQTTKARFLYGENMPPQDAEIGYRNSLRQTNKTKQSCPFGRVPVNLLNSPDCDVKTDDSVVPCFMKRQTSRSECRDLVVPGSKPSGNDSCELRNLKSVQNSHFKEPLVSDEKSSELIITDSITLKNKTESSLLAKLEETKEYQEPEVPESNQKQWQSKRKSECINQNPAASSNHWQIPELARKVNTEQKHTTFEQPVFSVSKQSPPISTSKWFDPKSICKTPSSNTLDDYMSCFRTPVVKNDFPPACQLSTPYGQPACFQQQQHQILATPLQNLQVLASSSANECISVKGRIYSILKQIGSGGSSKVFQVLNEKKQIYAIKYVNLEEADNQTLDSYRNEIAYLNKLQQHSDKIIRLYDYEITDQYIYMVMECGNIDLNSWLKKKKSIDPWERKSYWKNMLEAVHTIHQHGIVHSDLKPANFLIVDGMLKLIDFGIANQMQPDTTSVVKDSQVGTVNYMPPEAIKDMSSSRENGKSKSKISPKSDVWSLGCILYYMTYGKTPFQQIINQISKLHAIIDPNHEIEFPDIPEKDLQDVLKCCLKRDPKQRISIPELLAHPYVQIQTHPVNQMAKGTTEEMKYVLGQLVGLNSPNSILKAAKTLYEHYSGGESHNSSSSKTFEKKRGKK
The test can be described thus: Selectivity interaction (Kinase panel (literature)) EUB0001199aCl TTK. To be noted: at 1 µM.

In test [3] the target is Serine/threonine-protein kinase MARK2 (Homo sapiens) (UniProt Q7KZI7). The test can be described thus: Selectivity interaction (ActivX KiNativ screen (kinase selectivity in THP-1 cell lysates)) EUB0000639a MARK2. To be noted: lysate, at 0.04 µM. It counts as subcellular.
Chain of Serine/threonine-protein kinase MARK2 (Homo sapiens) (Q7KZI7 whole entry, canonical isoform): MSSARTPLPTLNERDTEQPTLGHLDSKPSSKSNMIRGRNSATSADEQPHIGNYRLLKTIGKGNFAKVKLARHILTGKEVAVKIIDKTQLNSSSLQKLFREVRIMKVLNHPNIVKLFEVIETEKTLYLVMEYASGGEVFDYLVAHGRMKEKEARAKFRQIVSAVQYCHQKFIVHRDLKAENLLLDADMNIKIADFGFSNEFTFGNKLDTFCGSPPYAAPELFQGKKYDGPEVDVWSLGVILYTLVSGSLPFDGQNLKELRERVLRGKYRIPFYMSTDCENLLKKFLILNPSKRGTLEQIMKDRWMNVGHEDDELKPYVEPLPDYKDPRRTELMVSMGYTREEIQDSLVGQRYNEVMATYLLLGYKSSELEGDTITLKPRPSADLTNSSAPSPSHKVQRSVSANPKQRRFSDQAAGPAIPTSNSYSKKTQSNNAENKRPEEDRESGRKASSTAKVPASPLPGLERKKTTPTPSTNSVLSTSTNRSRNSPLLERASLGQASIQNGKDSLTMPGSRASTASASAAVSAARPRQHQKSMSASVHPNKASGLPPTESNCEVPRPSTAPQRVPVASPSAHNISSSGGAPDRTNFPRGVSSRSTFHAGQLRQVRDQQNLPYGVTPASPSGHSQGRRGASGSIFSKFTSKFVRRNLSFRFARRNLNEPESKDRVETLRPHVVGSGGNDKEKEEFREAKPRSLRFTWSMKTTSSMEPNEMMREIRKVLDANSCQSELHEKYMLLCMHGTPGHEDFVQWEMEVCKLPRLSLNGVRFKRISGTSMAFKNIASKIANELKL
The target of test [4] is T2, Phosphorylase b kinase gamma catalytic chain, liver/testis isoform (Homo sapiens) (UniProt P15735).
T2 sequence (whole entry): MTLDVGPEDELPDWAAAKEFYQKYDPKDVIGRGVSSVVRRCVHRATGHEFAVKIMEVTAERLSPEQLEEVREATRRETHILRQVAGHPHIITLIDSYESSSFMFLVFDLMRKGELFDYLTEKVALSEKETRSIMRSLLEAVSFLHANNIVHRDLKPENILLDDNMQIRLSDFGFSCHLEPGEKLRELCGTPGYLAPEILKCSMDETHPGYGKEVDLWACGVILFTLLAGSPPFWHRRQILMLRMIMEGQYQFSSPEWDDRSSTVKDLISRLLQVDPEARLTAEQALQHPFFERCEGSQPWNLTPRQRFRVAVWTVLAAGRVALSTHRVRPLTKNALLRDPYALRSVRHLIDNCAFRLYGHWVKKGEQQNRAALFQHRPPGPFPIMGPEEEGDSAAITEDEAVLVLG
The test can be described thus: Selectivity interaction (Kinase panel (Invitrogen)) EUB0000639a PHKG2. The note with it: at 200 nM.

The target in test [5] is Tyrosine-protein kinase Lck (Homo sapiens, UniProt P06239). The test can be described thus: Selectivity interaction (KinomeScan (DiscoverX)) EUB0001049a LCK. The note with it: at 1 µM.
Chain of Tyrosine-protein kinase Lck (P06239 2-509 limits assumed): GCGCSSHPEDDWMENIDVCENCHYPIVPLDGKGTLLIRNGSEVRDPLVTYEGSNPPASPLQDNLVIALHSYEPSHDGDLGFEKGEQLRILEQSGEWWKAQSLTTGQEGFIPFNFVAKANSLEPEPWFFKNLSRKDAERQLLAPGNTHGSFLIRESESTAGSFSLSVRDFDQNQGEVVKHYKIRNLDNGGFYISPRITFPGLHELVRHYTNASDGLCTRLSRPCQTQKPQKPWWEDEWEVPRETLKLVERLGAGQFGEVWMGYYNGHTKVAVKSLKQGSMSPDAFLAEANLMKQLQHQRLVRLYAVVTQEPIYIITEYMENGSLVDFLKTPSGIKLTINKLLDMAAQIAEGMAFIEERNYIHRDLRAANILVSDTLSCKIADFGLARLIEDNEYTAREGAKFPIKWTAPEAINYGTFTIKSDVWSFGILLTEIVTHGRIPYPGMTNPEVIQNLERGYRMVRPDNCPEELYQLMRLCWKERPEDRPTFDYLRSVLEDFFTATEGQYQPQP
The target of test [6] is Ephrin type-A receptor 7 (Homo sapiens) (UniProt Q15375). The test can be described thus: Selectivity interaction (ProQinase) EUB0000171b EPHA7.
Chain of Ephrin type-A receptor 7 (Homo sapiens) (Q15375 28-998 limits assumed): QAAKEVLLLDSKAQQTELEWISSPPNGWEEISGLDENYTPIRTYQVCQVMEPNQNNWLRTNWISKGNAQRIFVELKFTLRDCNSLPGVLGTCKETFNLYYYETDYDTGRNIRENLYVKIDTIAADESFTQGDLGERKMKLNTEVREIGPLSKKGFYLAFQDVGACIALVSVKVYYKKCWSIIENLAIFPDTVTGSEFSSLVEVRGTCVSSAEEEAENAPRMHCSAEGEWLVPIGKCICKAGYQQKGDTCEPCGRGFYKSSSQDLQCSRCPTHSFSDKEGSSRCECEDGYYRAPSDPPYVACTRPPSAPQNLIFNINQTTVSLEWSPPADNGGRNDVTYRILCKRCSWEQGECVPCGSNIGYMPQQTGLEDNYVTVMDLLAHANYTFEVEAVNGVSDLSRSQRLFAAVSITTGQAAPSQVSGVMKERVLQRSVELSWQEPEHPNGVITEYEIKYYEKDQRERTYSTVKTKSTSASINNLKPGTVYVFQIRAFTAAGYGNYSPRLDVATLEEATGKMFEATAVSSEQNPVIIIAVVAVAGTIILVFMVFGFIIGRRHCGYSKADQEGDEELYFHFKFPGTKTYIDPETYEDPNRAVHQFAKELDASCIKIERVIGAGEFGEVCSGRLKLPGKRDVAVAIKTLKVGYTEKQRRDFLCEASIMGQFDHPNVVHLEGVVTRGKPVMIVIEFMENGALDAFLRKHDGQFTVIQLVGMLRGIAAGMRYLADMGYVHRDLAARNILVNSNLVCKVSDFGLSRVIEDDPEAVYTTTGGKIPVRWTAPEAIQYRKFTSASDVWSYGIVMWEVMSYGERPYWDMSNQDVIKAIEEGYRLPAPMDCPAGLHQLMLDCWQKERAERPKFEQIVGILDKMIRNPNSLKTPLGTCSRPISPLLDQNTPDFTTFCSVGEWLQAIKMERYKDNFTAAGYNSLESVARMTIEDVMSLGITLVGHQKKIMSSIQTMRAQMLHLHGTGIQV
Test [7] deals with Epidermal growth factor receptor (Homo sapiens), P00533 [UNDEFINED MUTATION]. The experiment in a line: Selectivity interaction (KinomeScan (DiscoverX)) EUB0000045b EGFR. The note with it: at 1 µM.
Chain of Epidermal growth factor receptor (Homo sapiens), P00533 [UNDEFINED MUTATION] (P00533 whole entry, looked up, change not shown): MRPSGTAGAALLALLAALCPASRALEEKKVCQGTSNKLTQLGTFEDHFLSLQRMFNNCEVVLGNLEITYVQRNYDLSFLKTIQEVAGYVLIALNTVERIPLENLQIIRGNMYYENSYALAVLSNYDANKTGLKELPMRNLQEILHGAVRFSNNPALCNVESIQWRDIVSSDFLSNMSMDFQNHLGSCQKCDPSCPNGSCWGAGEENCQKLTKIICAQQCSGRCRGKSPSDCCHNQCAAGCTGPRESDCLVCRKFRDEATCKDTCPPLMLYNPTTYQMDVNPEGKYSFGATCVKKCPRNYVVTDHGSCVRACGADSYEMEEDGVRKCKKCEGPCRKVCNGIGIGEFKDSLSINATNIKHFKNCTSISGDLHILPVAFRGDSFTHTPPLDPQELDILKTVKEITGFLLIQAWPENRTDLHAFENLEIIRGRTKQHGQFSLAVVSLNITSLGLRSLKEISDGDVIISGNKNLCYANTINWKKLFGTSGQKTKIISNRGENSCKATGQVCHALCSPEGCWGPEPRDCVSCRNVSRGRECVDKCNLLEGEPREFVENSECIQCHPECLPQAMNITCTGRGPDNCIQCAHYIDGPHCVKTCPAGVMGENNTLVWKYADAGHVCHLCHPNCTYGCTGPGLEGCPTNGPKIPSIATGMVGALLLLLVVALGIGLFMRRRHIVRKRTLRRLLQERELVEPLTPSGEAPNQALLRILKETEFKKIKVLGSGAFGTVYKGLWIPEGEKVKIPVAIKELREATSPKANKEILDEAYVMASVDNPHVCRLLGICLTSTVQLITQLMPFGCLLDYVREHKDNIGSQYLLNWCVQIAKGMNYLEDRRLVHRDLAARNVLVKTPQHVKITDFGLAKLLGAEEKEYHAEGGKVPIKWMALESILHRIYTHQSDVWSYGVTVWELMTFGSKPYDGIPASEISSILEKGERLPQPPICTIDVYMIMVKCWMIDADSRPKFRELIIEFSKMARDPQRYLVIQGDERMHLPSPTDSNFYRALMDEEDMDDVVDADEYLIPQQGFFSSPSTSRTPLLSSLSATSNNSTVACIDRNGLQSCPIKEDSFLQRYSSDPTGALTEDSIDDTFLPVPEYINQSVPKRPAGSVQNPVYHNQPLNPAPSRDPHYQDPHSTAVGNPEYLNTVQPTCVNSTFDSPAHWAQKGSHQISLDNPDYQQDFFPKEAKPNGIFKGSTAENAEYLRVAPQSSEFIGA
Test [8] addresses Bone morphogenetic protein receptor type-1A (Homo sapiens, UniProt P36894). The experiment in a line: Selectivity interaction (KinomeScan (DiscoverX)) EUB0000618a BMPR1A. To be noted: at 10 µM.
For test [9], the target named is T3, Ephrin type-A receptor 1 (Homo sapiens) (UniProt P21709).
T3 sequence (whole entry): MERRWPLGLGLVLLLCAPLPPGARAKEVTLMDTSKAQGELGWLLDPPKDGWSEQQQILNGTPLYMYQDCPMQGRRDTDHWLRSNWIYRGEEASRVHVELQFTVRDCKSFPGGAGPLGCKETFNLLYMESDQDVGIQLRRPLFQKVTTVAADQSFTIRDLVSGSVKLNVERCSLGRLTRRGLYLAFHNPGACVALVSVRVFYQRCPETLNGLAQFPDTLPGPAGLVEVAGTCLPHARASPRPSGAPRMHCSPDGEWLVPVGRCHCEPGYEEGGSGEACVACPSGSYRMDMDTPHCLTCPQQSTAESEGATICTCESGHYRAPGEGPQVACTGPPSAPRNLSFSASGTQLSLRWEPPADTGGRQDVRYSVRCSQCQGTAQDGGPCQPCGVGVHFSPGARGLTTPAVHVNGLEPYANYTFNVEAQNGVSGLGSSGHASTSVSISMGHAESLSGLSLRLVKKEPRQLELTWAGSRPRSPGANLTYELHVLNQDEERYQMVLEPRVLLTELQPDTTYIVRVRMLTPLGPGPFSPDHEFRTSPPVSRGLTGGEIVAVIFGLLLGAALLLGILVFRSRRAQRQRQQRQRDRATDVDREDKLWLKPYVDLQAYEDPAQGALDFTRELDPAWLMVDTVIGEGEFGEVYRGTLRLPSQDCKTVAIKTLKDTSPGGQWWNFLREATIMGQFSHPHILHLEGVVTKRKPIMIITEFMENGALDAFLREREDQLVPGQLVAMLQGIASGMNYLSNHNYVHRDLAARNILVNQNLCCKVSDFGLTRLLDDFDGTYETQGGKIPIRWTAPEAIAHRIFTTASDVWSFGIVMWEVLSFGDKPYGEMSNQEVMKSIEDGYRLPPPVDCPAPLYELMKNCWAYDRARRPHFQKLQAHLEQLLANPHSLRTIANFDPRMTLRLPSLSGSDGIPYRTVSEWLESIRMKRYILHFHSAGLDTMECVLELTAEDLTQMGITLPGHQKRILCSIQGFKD
The experiment in a line: Selectivity interaction (KinomeScan (DiscoverX)) EUB0000595a EPHA1. The note with it: at 10 µM.

Structures are written as SMILES.

Chain of Bone morphogenetic protein receptor type-1A (P36894 whole entry): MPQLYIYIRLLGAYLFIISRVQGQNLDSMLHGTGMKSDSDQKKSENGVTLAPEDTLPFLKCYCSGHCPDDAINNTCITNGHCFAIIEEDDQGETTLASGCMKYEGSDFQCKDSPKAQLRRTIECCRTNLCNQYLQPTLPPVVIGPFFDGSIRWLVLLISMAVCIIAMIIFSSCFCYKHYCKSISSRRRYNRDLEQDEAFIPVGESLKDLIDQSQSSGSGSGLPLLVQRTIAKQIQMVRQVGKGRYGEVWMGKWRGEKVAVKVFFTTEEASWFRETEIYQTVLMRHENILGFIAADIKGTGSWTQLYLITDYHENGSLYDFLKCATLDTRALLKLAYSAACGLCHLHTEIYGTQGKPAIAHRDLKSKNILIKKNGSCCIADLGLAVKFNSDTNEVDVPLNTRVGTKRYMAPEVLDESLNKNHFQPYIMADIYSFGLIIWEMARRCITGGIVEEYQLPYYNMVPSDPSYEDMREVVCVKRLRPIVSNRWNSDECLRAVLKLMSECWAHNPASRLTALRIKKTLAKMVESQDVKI
Chain of Tyrosine-protein kinase BTK (Q06187 whole entry): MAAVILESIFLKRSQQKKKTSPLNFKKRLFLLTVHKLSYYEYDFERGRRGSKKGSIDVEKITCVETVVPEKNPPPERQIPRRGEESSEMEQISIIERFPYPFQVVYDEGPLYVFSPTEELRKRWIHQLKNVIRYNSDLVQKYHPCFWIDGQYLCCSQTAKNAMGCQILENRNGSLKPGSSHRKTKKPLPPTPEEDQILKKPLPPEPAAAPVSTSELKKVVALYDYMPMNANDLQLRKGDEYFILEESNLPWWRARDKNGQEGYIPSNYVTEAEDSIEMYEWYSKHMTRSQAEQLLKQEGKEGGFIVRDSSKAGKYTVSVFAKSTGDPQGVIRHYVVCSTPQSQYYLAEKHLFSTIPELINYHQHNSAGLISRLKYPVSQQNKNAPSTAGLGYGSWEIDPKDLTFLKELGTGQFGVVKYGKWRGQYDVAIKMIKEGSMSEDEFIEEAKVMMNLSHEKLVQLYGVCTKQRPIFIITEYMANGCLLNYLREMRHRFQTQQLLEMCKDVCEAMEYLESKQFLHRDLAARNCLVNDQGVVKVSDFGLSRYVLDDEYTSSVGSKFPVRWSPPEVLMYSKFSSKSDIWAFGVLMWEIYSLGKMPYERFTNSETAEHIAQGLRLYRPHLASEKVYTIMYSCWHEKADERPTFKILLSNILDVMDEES

In the case of `N#Cc1cccc(-c2c[nH]c3ncnc(N4CCOCC4)c23)c1`, in test [1], the % of inhibition came out at 10%. Regarding `CN1Cc2nccc(-c3cn(C)nc3-c3ccc(F)cc3)c2C1=O`, the % of inhibition in test [2] is -3%. Turning to `CC[C@@H]1[C@H](F)C(=O)N[C@@H]1COc1nccc2cc(C(N)=O)c(OC)cc12` [ZIMLOVISERTIB], the % of inhibition in test [3] was -13.3%; in [4], 24.7%. `COc1cc(Nc2nc(C)cc(-c3cnn4nc(OC)ccc34)n2)cc(C(F)(F)F)c1` displayed a % of control in test [5] of 96%.

As to `C=CC(=O)Nc1cccc(C(=O)Nc2ccc(Nc3cc(-c4[nH]c(SC)nc4C)ccn3)cc2)c1`, the % of control was 93% in [6] (at 1 µM) and 89% in test [6] (at 5 µM).

Take `C=CC(=O)Nc1cc(-n2c(=O)ccc3cnc4ccc(-c5ccc(NS(C)(=O)=O)cc5)cc4c32)ccc1C`: in test [7], the % of control came to 100%. `O[C@H]1CC[C@H](Nc2ncc3nc(Nc4c(F)cc(F)cc4F)n([C@H]4CCOC4)c3n2)CC1` displayed a % of control in test [8] of 100%. With `COCC(=O)NC/C=C/c1ccc2ncnc(Nc3ccc(Oc4ccc(C)nc4)c(C)c3)c2c1` [CP-724714], the % of control in [9] was determined as 88%.

Values taken from ChEMBL document CHEMBL5465560, “Selectivity Literature for EUbOPEN Chemogenomic Library” (2024).
